We go through 2 compounds from ChEMBL document CHEMBL5653631, “A Potent and Selective ULK1 Inhibitor Suppresses Autophagy and Sensitizes Cancer Cells to Nutrient Stress” (iScience, 2018).

The target of test [1] is T1, Serine/threonine-protein kinase DCLK2 (Homo sapiens) (UniProt Q8N568).
T1 sequence (whole entry): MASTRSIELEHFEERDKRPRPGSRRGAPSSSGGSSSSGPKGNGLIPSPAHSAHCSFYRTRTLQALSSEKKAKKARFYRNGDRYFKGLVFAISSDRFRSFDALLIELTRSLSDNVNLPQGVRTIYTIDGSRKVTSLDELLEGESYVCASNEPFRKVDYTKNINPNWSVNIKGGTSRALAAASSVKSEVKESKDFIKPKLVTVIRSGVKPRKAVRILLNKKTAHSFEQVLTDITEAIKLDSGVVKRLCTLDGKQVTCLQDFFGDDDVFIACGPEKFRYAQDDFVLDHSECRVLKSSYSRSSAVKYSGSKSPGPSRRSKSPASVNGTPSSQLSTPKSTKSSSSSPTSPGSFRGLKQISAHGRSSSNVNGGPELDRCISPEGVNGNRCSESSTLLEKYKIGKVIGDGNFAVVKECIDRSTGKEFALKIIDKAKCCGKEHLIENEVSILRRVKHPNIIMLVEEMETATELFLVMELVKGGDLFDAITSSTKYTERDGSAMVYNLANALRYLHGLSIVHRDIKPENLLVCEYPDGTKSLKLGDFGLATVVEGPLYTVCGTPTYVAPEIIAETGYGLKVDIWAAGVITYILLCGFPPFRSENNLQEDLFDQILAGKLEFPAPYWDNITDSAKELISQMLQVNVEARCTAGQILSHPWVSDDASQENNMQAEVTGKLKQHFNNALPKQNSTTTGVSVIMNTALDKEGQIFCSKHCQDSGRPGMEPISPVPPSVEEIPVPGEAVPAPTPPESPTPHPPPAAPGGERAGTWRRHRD
The test is described as follows: Inhibition of human recombinant DCAMKL2 at 40 nM in presence of ATP by radiometric assay relative to control.

Test [2] addresses T2, Tyrosine-protein kinase ZAP-70 (Homo sapiens) (UniProt P43403).
T2 sequence (whole entry): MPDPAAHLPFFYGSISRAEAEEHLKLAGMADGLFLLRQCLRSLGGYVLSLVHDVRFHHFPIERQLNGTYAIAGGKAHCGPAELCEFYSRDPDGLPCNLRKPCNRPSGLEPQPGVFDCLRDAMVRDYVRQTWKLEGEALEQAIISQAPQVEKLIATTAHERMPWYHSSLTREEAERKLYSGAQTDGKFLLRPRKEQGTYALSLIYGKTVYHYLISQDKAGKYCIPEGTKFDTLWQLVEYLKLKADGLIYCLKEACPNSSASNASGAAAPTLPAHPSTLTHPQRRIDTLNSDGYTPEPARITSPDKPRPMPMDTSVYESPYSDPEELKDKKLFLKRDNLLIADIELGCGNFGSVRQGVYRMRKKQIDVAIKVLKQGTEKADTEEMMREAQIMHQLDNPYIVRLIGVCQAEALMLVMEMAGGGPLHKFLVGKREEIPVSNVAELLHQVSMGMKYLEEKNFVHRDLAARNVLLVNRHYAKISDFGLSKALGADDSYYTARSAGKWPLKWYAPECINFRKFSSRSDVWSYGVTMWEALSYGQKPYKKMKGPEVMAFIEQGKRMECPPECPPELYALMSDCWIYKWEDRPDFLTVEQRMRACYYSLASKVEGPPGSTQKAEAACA
As to the kind of experiment: Inhibition of human recombinant ZAP70 at 15 nM in presence of ATP by radiometric assay relative to control.

For test [3], the target named is T3, Tyrosine-protein kinase TXK (Homo sapiens) (UniProt P42681).
T3 sequence (whole entry): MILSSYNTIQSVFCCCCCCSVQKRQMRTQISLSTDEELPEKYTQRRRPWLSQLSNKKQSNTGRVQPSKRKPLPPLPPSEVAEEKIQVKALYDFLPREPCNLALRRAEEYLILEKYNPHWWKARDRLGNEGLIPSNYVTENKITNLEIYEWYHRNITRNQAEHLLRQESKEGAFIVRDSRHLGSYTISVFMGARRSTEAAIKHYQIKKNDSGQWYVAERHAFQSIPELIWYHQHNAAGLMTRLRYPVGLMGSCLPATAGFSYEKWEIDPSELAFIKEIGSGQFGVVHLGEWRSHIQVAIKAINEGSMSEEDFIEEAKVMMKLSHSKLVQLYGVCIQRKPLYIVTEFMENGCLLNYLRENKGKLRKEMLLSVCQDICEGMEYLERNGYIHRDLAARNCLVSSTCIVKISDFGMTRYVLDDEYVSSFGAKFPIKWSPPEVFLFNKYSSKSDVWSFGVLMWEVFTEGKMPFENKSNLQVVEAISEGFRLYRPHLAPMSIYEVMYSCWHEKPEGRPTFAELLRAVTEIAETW
The test is described as follows: Inhibition of human recombinant TXK at 15 nM in presence of ATP by radiometric assay relative to control.

One may read the inhibition as the drop in the measured response relative to a control, in per cent. Take `O=C(N[C@@H](C1CC1)C(F)(F)F)c1cc(-c2cnn3cc(-c4ccc(F)cc4)cnc23)cs1`: in test [1], the inhibition turned out to be 0%.
In the case of `CC(C)[C@H](NC(=O)c1cc(-c2cnn3cc(-c4ccc(OCCN5CCCCC5)cc4)cnc23)cs1)C(F)(F)F`, the inhibition in test [2] stood at 0%; in test [3] it was 59%.
